{"source": "patent US8633204B2", "about": "(Pfizer Inc., priority 2006, dated 2014)", "key": {"[1]": {"system": "phosphorylation of AKT on S473 in SKOV3 tumors", "test": "In vivo target modulation study, SKOV3 tumors", "parameters": "species or system mouse", "method": "(§1) In vivo target modulation studies to determine the effect of Compound 152 treatment on the phosphorylation of AKT on S473 by ELISA and S6 on S235/S236 by IHC were performed. Resected tumors were frozen on dry ice and pulverized using the FAST PREP instrument (Qbiogene). Briefly, frozen tumors were placed in Fast Prep matrix tubes, cold lysis buffer [20 mM HEPES (pH 7.5), 150 mM NaCl, 1.0 mM sodium EDTA, 1% Triton X-100, 2.5 mM sodium pyrophosphate, 1 mM sodium orthovanadate, 1 μg/ml leupeptin, and 1 mM PMSF] was added and samples were centrifuged for 5 sec, mixed and process repeated two more times. Samples were centrifuged in a cold refrigerated Eppendorf centrifuge at 14,000 RPM for 20 min. Supernatant was collected and total and phosphoAKT (S473) protein levels determined by ELISA. The extent of phosphorylation in tumors resected from treated animals was compared with that in tumors resected from vehicle-treated animals at the same time point. Plasma samples, obtained by centrifuging individual blood samples at 3000×g for 5 min at 4° C. in an Eppendorf 5417R centrifuge, were stored at −80° C. until they could be analyzed for drug concentration. Briefly, plasma samples (50 μl) or Compound 152 standards in mouse plasma were mixed with acetonitrile […]) and injected onto a LC/MS/MS system where separation occurred on a C-18 SB phenyl (5 μM, 2.1×50 mm, Agilent) reverse-phase high-performance liquid chromatography column. The amount of inhibitor and the internal standard (0.5 μM buspirone) in each mouse plasma sample was quantified based on standard curves generated using known amounts of compound. […] Time course and dose response of in vivo target modulation and plasma inhibitor concentrations were determined post last dose at the end of the efficacy study described above and data are summarized in Table 4."}, "[2]": {"system": "U87MG tumor model", "test": "Mouse xenograft efficacy study, U87MG", "assay_type": "in vivo", "settings": "for Growth Inhibition (%): U87 MG glioma xenograft", "method": "The in vivo efficacy of 2-amino-8-(trans-4-hydroxycyclohexyl)-6-(6-methoxypyridin-3-yl)-4-methylpyrido[2,3-d]pyrimidin-7(8H)-one (Compound 152) disclosed in Example 53 was examined in s.c. xenograft model. Human tumor cell lines PC3 (PTEN deletion)), U87MG (PTEN deletion) and SKOV3 (PI3Kα […]) were chosen for in vivo efficacy studies due to their different genetic background and relatively high levels of phospho AKT S473 signal. Cells were implanted in the hind flank of athymic mice and tumors grew in size to 100-200 mm^3 before daily oral treatment with Compound 152 was initiated. […] For all models tested 1 mg/kg was an efficacious dose.\nAnimal Care: Female and male athymic mice (6-8 weeks old) weighing ˜22 g were obtained from Charles River Laboratory. Animal were housed on a 12 h light/dark cycle in the Pfizer vivarium and all procedures are conducted in accordance with the Pfizer Institutional Animal Care and Use Committee (IACUC). Animals are provided free access to rodent chow and water ad libitum and maintained under clean room conditions. Prior to study start animals acclimate for at least 48 h.\nCell lines: All cell lines were cultured at 37° C. in humidified 5% CO2 incubator. U87 MG glioblastoma tumor cell line was obtained from American Type Culture Collection (ATCC) and cultured with DMEM supplemented with 15% FBS and 2 mM glutamine. PC3 prostate cancer cell line were obtained from National Cancer Institute and cultured in RPMI media supplemented with 10% FBS and 2 mM glutamine. SKOV3 ovarian cancer cells were obtained from ATCC and passaged multiple times through mice, and cultured in McCoy's 5A media supplemented with 10% FBS and 2 mM glutamine. All cell lines were tested by University of Missouri Research Animal Diagnostic Laboratory for known species of murine viruses and mycoplasma contamination.\nMouse Xenograft Models: U87MG (glioblastoma), PC3 (prostate cancer) and SKOV3 (ovarian cancer) cell lines in culture were harvested by trypsinisation. Briefly, 2.5−4×10^6 tumor cells were suspended in the medium used to culture each cell line without serum and implanted sub-cutaneously (s.c) into the hind flank region of mice on day 0. Daily treatment with Compound 152, formulated in 10% ethanol, 40% PEG and 50% sodium citrate buffer or vehicle alone commenced 10-14 d after implantation when average tumors were 100-200 mm^3 in size. Tumors were measured twice weekly and tumor volume was calculated as a product of (length×width^2)/2. Studies were typically terminated when the tumor in the vehicle treated animals reached a size of >1500 mm3 or when judged to adversely affect the well being of the animal. […] Where applicable, percent tumor regression for each group was calculated as 100×(tumor volumeinitial−tumor volumefinal)/(tumor volumeinitial). A cohort of 12 animals was used for each dose group for efficacy studies. A representative cohort of animals were sacrificed at the times indicated, tumors resected, and a blood sample taken from the cardiac left ventricle and immediately placed in a vial primed with heparin sulfate. Typically one half of the tumor was fixed in 10% neutral buffered formalin, paraffin embedded, and sectioned for immunohistochemistry. The other half was frozen in liquid nitrogen and later processed to generate cell lysates for target modulation studies."}, "[3]": {"system": "phosphorylation of AKT on S473 in U87MG tumors", "test": "In vivo target modulation study, U87MG tumors", "parameters": "species or system mouse", "settings": "for p-Akt/Akt(%): 1 h post last dose", "method": "as §1"}, "[4]": {"system": "phosphorylation of AKT on S473 in PC3 tumors", "test": "In vivo target modulation study, PC3 tumors", "parameters": "species or system mouse", "method": "as §1"}, "[5]": {"settings": "U87MG tumor model, daily oral treatment"}}, "note": "Entries after “also recorded” stand apart in the source; their conditions may differ.", "data": [{"smiles": "COc1ccc(-c2cc3c(C)nc(N)nc3n([C@H]3CC[C@H](O)CC3)c2=O)cn1", "note": "[Compound 152, 2-amino-8-(trans-4-hydroxycyclohexyl)-6-(6-methoxypyridin-3-yl)-4-methylpyrido[2,3-d]pyrimidin-7(8H)-one]", "values": [{"measurement": "p-Akt/Akt(%)", "setting": "[1]; SKOV3, 0.5 mg/kg, 3 h post last dose", "value": "30 ± 3", "unit": "%"}, {"measurement": "p-Akt/Akt(%)", "setting": "[1]; SKOV3, 0.5 mg/kg, 7 h post last dose", "value": "55 ± 4", "unit": "%"}, {"measurement": "p-Akt/Akt(%)", "setting": "[1]; SKOV3, 0.5 mg/kg, 24 h post last dose", "value": "147 ± 21", "unit": "%"}, {"measurement": "p-Akt/Akt(%)", "setting": "[1]; SKOV3, 1 mg/kg, 3 h post last dose", "value": "27 ± 6", "unit": "%"}, {"measurement": "p-Akt/Akt(%)", "setting": "[1]; SKOV3, 1 mg/kg, 7 h post last dose", "value": "48 ± 17", "unit": "%"}, {"measurement": "p-Akt/Akt(%)", "setting": "[1]; SKOV3, 1 mg/kg, 24 h post last dose", "value": "124 ± 10", "unit": "%"}, {"measurement": "p-Akt/Akt(%)", "setting": "[1]; SKOV3, 2 mg/kg, 3 h post last dose", "value": "23 ± 5", "unit": "%"}, {"measurement": "p-Akt/Akt(%)", "setting": "[1]; SKOV3, 2 mg/kg, 7 h post last dose", "value": "30 ± 13", "unit": "%"}, {"measurement": "p-Akt/Akt(%)", "setting": "[1]; SKOV3, 2 mg/kg, 24 h post last dose", "value": "126 ± 20", "unit": "%"}, {"measurement": "inhibition of pAKT at S473", "setting": "[1]; SKOV3 tumors in vivo", "value": "dose dependent inhibition"}, {"measurement": "Growth Inhibition (%)", "setting": "[2]; 0.1 mg/kg/day oral", "value": 18, "unit": "%"}, {"measurement": "Growth Inhibition (%)", "setting": "[2]; 0.3 mg/kg/day oral", "value": 56, "unit": "%"}, {"measurement": "Growth Inhibition (%)", "setting": "[2]; 1.0 mg/kg/day oral", "value": 76, "unit": "%"}, {"measurement": "anti-tumor efficacy", "setting": "[2]; [5]", "value": "dose-dependent anti-tumor efficacy; also recorded: growth inhibition"}, {"measurement": "efficacious dose", "setting": "[2]; [5]", "value": 1, "unit": "mg/kg"}, {"measurement": "EC50", "setting": "[3]; Mus musculus, U-87 MG, read-out: EC50 plasma concentration for pAKT S473 target modulation", "value": 24, "unit": "nM"}, {"measurement": "p-Akt/Akt(%)", "setting": "[3]; U87, 0.1 mg/kg", "value": 44, "unit": "%"}, {"measurement": "p-Akt/Akt(%)", "setting": "[3]; U87, 0.3 mg/kg", "value": 27, "unit": "%"}, {"measurement": "p-Akt/Akt(%)", "setting": "[3]; U87, 1 mg/kg", "value": 11, "unit": "%"}, {"measurement": "inhibition of pAKT at S473", "setting": "[3]; U87MG tumors in vivo", "value": "dose dependent inhibition"}, {"measurement": "p-Akt/Akt(%)", "setting": "[4]; PC3, 0.25 mg/kg, 3 h post last dose", "value": "42 ± 14", "unit": "%"}, {"measurement": "p-Akt/Akt(%)", "setting": "[4]; PC3, 0.25 mg/kg, 7 h post last dose", "value": "82 ± 18", "unit": "%"}, {"measurement": "p-Akt/Akt(%)", "setting": "[4]; PC3, 0.25 mg/kg, 24 h post last dose", "value": "137 ± 23", "unit": "%"}, {"measurement": "p-Akt/Akt(%)", "setting": "[4]; PC3, 0.5 mg/kg, 3 h post last dose", "value": "32 ± 4", "unit": "%"}, {"measurement": "p-Akt/Akt(%)", "setting": "[4]; PC3, 0.5 mg/kg, 7 h post last dose", "value": "38 ± 5", "unit": "%"}, {"measurement": "p-Akt/Akt(%)", "setting": "[4]; PC3, 0.5 mg/kg, 24 h post last dose", "value": "107 ± 6", "unit": "%"}, {"measurement": "p-Akt/Akt(%)", "setting": "[4]; PC3, 1 mg/kg, 3 h post last dose", "value": "23 ± 10", "unit": "%"}, {"measurement": "p-Akt/Akt(%)", "setting": "[4]; PC3, 1 mg/kg, 7 h post last dose", "value": "27 ± 9", "unit": "%"}, {"measurement": "p-Akt/Akt(%)", "setting": "[4]; PC3, 1 mg/kg, 24 h post last dose", "value": "113 ± 15", "unit": "%"}, {"measurement": "p-Akt/Akt(%)", "setting": "[4]; PC3, 2 mg/kg, 3 h post last dose", "value": "21 ± 5", "unit": "%"}, {"measurement": "p-Akt/Akt(%)", "setting": "[4]; PC3, 2 mg/kg, 7 h post last dose", "value": "17 ± 7", "unit": "%"}, {"measurement": "p-Akt/Akt(%)", "setting": "[4]; PC3, 2 mg/kg, 24 h post last dose", "value": "78 ± 9", "unit": "%"}, {"measurement": "inhibition of pAKT at S473", "setting": "[4]; PC3 tumors in vivo", "value": "dose dependent inhibition"}]}]}
